Reference: patent US11684614B2, “Formulations of hydroxypyridonate actinide/lanthanide decorporation agents” (priority 2017, dated 2023)
“And” between values parts separate entries of the source, which are not always exact repeats. Identical values can stand only once.

Assay: Repeated-treatment efficacy for removing an intravenous dose of 238Pu (excretion, tissue retention, clinical observations), female and male arms
Type: in vivo, Swiss-Webster mice
Conditions: listed as 3,4,3-LI(1,2-HOPO)
Method: The objective of this study was to characterize the efficacy of 3,4,3-L1(1,2-HOPO) at enhancing elimination from an internal plutonium burden in female and male Swiss-Webster mice administered a soluble citrate complex of ^238Pu and treated multiple times, starting at 24 hours after the exposure. Efficacy was evaluated by comparing the tissue contents, urinary and fecal excretions of ^238Pu in treated animals versus untreated animals.
The medical countermeasure 3,4,3-L1(1,2-HOPO) was administered parenterally (ip) or orally (po) via consecutive injections or gavages (six daily or twelve twice daily) starting at 24 hours post contamination at the following four selected doses: 30 μmol/kg ip, 150 μmol/kg po, 300 μmol/kg po, and 600 μmol/kg po (equivalent to respective approximate human doses range of […], using the accepted conversion system of mouse doses into human equivalent doses—HED—based on body surface area). Oral doses also included the permeability enhancer selected during formulation development work.
• Challenge isotope: ^238Pu • Challenge dose: 25 nCi (i.e., approximately 0.8 μCi/kg) • Route of contamination: Intravenous (iv) tail-vein • Route of treatment: Intraperitoneal Injection (ip) or Oral (po) • Frequency of treatment: Multiple (once- or twice-daily for 6 days) doses, starting 24 hr postcontamination • Treatment dose calculation: Dose calculations (mg/kg or μmol/kg) for the decorporation agent were based on the individual body weight measured after contamination. • Study Duration: 11 days, in-life
c. […] Test article and control dose formulations were prepared within 1 day of dose administration, by weighing out the appropriate amount of test article, dispersing in vehicle. For ip solutions, the test article was used alone, while for oral suspensions, a mixture of test article and excipient (90:10, w:w) was used. The pH was adjusted to 7.0-7.4 for ip administration and 5.0-5.5 for oral administration with sterile NaOH. Dose formulations were prepared at room temperature and filter-sterilized. • Storage: 2-8° C.; refrigerated; protected from light. • Characterization: The concentration of each test article formulation was verified by high-performance liquid chromatography-mass spectrometry. • Test Article Handling: Test, reference, and control article formulations were handled with the use of eye protection, gloves, and a protective laboratory coat. • Correct Dose Assurance: The test article was weighed with calibrated balances. The administration of each dose formulation was properly documented, and the amount administered to each animal recorded.
e. Experimental Procedures (In-Life Evaluations and Euthanasia) • Contamination: Single administration by intravenous (iv) tail-vein injection (0.2 mL injection volume) under isoflurane anesthesia. Three standard 0.2 mL injections were performed into polyethylene bottles and pre-loaded with aliquots of concentrated nitric acid on each injection day. Six female and six male mice were culled for necropsy 1 hr post-contamination and were used as standards. A11 standards were processed and counted together with the final samples to allow verification of the contamination dose. • Dose Administration: Single administration by intraperitoneal injection (ip) or oral gavage (po) under isoflurane anesthesia. • Mortality/Morbidity: Assessed at least once daily. • Clinical Observations: Recorded once daily (4 hr post-dose on day of treatment), or more often as clinical signs warranted. […]

Structure (SMILES): O=C(NCCCN(CCCCN(CCCNC(=O)c1cccc(=O)n1O)C(=O)c1cccc(=O)n1O)C(=O)c1cccc(=O)n1O)c1cccc(=O)n1O [3,4,3-L1(1,2-HOPO)]
- % Recovered Dose-Female Animals-Urine per Day-Day 11 Necropsy (animal group H, day 8, female mice): 0.66% and 1.22% and 0.77% and 0.75% and 0.78% and 0.99% and 0.49% and 1.24%
- % Recovered Dose-Female Animals-Urine per Day-Day 11 Necropsy (animal group H, day 9, female mice): 0.40% and 0.85% and 0.75% and 0.43% and 0.47% and 0.72% and 0.37% and 0.99%
- % Recovered Dose-Female Animals-Urine per Day-Day 11 Necropsy (animal group H, day 10, female mice): 0.31% and 0.47% and 0.39% and 0.29% and 0.19% and 0.50% and 0.25% and 0.54%
- % Recovered Dose-Female Animals-Urine per Day-Day 11 Necropsy (animal group H, day 11, female mice): 0.25% and 0.49% and 0.32% and 0.27% and 0.37% and 0.52% and 0.29% and 0.67%
- % Recovered Dose-Female Animals-Urine per Day-Day 11 Necropsy (animal group I, day 1, female mice): 7.77% and 13.56% and 9.39% and 8.83% and 9.40% and 8.09% and 8.07% and 7.99%
- % Recovered Dose-Female Animals-Urine per Day-Day 11 Necropsy (animal group I, day 3, female mice): 5.15% and 4.91% and 4.95% and 3.52% and 6.42% and 5.63% and 7.70%
- % Recovered Dose-Female Animals-Urine per Day-Day 11 Necropsy (animal group I, day 4, female mice): 2.76% and 3.63% and 3.08% and 3.06% and 4.72% and 4.39%
- % Recovered Dose-Female Animals-Urine per Day-Day 11 Necropsy (animal group I, day 5, female mice): 2.07% and 2.10% and 1.73% and 1.67% and 1.85% and 1.81% and 1.59%
- % Recovered Dose-Female Animals-Urine per Day-Day 11 Necropsy (animal group I, day 6, female mice): 1.80% and 2.08% and 1.82% and 1.64% and 2.11% and 1.61% and 1.48%
- % Recovered Dose-Female Animals-Urine per Day-Day 11 Necropsy (animal group I, day 7, female mice): 1.20% and 1.23% and 1.07% and 1.17% and 1.43% and 1.94% and 1.45%
- % Recovered Dose-Female Animals-Urine per Day-Day 11 Necropsy (animal group I, day 8, female mice): 0.79% and 1.03% and 0.78% and 0.83% and 0.67% and 0.96% and 0.90%
- % Recovered Dose-Female Animals-Urine per Day-Day 11 Necropsy (animal group I, day 9, female mice): 0.82% and 0.67% and 0.59% and 0.61% and 0.55% and 0.69% and 0.52%
- % Recovered Dose-Female Animals-Urine per Day-Day 11 Necropsy (animal group I, day 10, female mice): 0.78% and 0.49% and 0.52% and 0.32% and 0.31% and 0.55% and 0.45%
- % Recovered Dose-Female Animals-Urine per Day-Day 11 Necropsy (animal group I, day 11, female mice): 0.67% and 0.65% and 0.58% and 0.43% and 0.46% and 0.89% and 0.44%
- % Recovered Dose-Female Animals-Urine per Day-Day 11 Necropsy (animal group L, day 1, female mice): 5.35% and 10.51% and 3.65% and 5.09% and 9.71% and 8.91% and 9.38% and 5.37%
- % Recovered Dose-Female Animals-Urine per Day-Day 11 Necropsy (animal group L, day 2, female mice): 9.62% and 11.11% and 5.95% and 8.55% and 8.68% and 12.54% and 10.49% and 9.01%
- % Recovered Dose-Female Animals-Urine per Day-Day 11 Necropsy (animal group L, day 3, female mice): 5.07% and 4.30% and 2.41% and 3.68% and 5.39% and 4.44% and 3.21% and 5.10%
- % Recovered Dose-Female Animals-Urine per Day-Day 11 Necropsy (animal group L, day 4, female mice): 4.52% and 3.28% and 1.82% and 3.38% and 3.96% and 3.67% and 4.12% and 5.10%
- % Recovered Dose-Female Animals-Urine per Day-Day 11 Necropsy (animal group L, day 5, female mice): 2.41% and 2.57% and 6.05% and 2.26% and 2.77% and 2.39% and 2.74% and 3.54%
- % Recovered Dose-Female Animals-Urine per Day-Day 11 Necropsy (animal group L, day 6, female mice): 1.58% and 1.95% and 4.31% and 3.12% and 2.44% and 1.42% and 1.86% and 2.87%
- % Recovered Dose-Female Animals-Urine per Day-Day 11 Necropsy (animal group L, day 7, female mice): 2.68% and 4.39% and 2.50% and 2.41% and 2.29% and 1.58% and 2.14% and 2.03%
- % Recovered Dose-Female Animals-Urine per Day-Day 11 Necropsy (animal group L, day 8, female mice): 2.01% and 6.27% and 1.63% and 1.89% and 1.73% and 1.02% and 1.29% and 1.12%
- % Recovered Dose-Female Animals-Urine per Day-Day 11 Necropsy (animal group L, day 9, female mice): 0.99% and 3.81% and 0.96% and 1.05% and 0.50% and 0.53% and 0.57%
- % Recovered Dose-Female Animals-Urine per Day-Day 11 Necropsy (animal group L, day 10, female mice): 1.29% and 1.70% and 0.71% and 1.04% and 0.44% and 0.60% and 0.41%
- % Recovered Dose-Female Animals-Urine per Day-Day 11 Necropsy (animal group L, day 11, female mice): 0.70% and 1.28% and 0.58% and 0.75% and 0.68% and 0.40% and 0.72% and 0.59%
- % Recovered Dose-Female Animals-Urine per Day-Day 11 Necropsy (animal group M, day 1, female mice): 8.44% and 9.22% and 6.58% and 5.72% and 8.33% and 7.11% and 8.76% and 7.62%
- % Recovered Dose-Female Animals-Urine per Day-Day 11 Necropsy (animal group M, day 2, female mice): 6.23% and 7.89% and 7.02% and 10.02% and 10.31% and 12.05% and 7.08% and 9.14%
- % Recovered Dose-Female Animals-Urine per Day-Day 11 Necropsy (animal group M, day 3, female mice): 2.30% and 3.50% and 4.87% and 4.65% and 3.13% and 1.94% and 3.83% and 3.56%
- % Recovered Dose-Female Animals-Urine per Day-Day 11 Necropsy (animal group M, day 4, female mice): 3.18% and 2.79% and 3.46% and 4.28% and 3.48% and 2.77% and 2.90% and 3.40%
- % Recovered Dose-Female Animals-Urine per Day-Day 11 Necropsy (animal group M, day 5, female mice): 1.90% and 2.00% and 3.07% and 4.53% and 2.38% and 1.31% and 2.10% and 2.52%
- % Recovered Dose-Female Animals-Urine per Day-Day 11 Necropsy (animal group M, day 6, female mice): 2.20% and 3.65% and 3.85% and 2.48% and 2.57% and 1.91% and 3.39% and 2.63%
- % Recovered Dose-Female Animals-Urine per Day-Day 11 Necropsy (animal group M, day 7, female mice): 1.09% and 4.12% and 3.24% and 1.63% and 2.05% and 0.95% and 2.29% and 2.08%
- % Recovered Dose-Female Animals-Urine per Day-Day 11 Necropsy (animal group M, day 8, female mice): 1.16% and 1.96% and 1.85% and 1.17% and 1.59% and 1.23% and 1.36% and 1.47%
- % Recovered Dose-Female Animals-Urine per Day-Day 11 Necropsy (animal group M, day 9, female mice): 0.89% and 0.80% and 0.95% and 0.56% and 0.83% and 0.91% and 1.12% and 1.20%
- % Recovered Dose-Female Animals-Urine per Day-Day 11 Necropsy (animal group M, day 10, female mice): 0.48% and 0.61% and 0.71% and 0.70% and 1.03% and 1.20% and 1.18%
